Results published in article PMC7070036, “An amber obligate active site-directed ligand evolution technique for phage display” (Nature Communications, 2020).
Values joined by “and” are separate entries in the source; they are usually repeats but may differ in a detail not shown here. Equal entries are not always repeated. Starred links: 1 amine or outer side, 2 acyl side, 3 side chain; linkers in the order of their positions; H or OH if unused. Non-standard residues stand in square brackets, D forms with d. Residues, ends and D or L forms follow the SMILES beside them. Lys(thiomyristoyl) = CCCCCCCCCCCCCC(=S)NCCCC[C@H](N)C(=O)O; X1 = CCCC(=S)NCCCC[C@H](N[*:1])C(=O)[*:2]; Abu = CC[C@H](N)C(=O)O

Tests used:
SIRT2 [1] = molecular target: T1, SIRT2 (Homo sapiens, UniProt Q8IXJ6); test: Continuous fluorogenic sirtuin inhibition assay, SIRT2 (tBuK peptides, TB); format: biochemical; conditions: for IC50: 0.25 µM SIRT2, 1 mM NAD+, 5 µM fluorogenic substrate, 15 min preincubation, n = 2, read-out: IC50; for %Activity, SIRT2 / activity at 0.5 µM / activity at 1 µM / activity at 2 µM / activity at 4 µM / activity at 50 µM / activity at 0.0064 µM / activity at 0.032 µM: single trials
T1 sequence (Q8IXJ6 1-389): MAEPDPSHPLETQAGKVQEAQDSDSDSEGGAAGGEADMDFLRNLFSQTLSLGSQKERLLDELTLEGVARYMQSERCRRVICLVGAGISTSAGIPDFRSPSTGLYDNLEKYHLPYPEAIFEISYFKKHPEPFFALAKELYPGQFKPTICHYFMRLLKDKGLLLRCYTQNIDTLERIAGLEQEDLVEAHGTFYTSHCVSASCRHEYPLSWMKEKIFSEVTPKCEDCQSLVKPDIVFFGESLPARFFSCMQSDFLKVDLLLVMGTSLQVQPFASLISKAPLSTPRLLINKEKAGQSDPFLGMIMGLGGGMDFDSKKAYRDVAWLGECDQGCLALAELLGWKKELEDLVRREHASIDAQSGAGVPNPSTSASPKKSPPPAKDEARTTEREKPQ
Description: The continuous assay for comparing isoform specificity of S2P04 was performed using the universal fluorogenic sirtuin substrate described by Schuster et al.[41]. Briefly, the inhibition reactions were performed in 50-µL volumes at 37 °C in black, half-area, 96-well plates. The sirtuin enzyme (0.25 µM) was preincubated with different concentrations of the peptide S2P04 (0.0064–50 µM for SIRT1 and SIRT2, 0.5–100 µM for SIRT3) or TB (0.16–150 µM for SIRT1–SIRT3), and 1 mM NAD^+ in assay buffer (20 mM Tris, pH 7.8, 150 mM NaCl, 5 mM MgCl2, and 1 mM DTT) for 15 min. Following incubation, the reaction started with the addition of the fluorogenic substrate (5 µM), and product formation was monitored by measuring the fluorescence intensity every 20 s for 5 min (SIRT2) or 30 min (SIRT1 and SIRT3) in a BioTek Synergy H1 microplate reader at λex = 320 nm and λem = 408 nm (gain = 130 and read height = 7 mm). Initial rates of product formation were determined by a linear regression of the plot of fluorescence intensity vs. time and normalized relative to 0% (max inhibitor) and 100% (no inhibitor) controls. The assay was repeated to determine the IC50 values of all BuK peptides for SIRT2. IC50 values were determined by nonlinear regression of the plot of the normalized initial rate vs. inhibitor concentration using GraphPad Prism. The determined IC50 values are provided in Supplementary Table 2, and inhibition curves can be seen in Supplementary Fig. 20.

SIRT2 [2] = molecular target: T1, SIRT2; test: SIRT2 inhibition assay for thiomyristoyl peptides; format: biochemical; conditions: for %Activity, SIRT2: listed as S2P04 (Abu)-tMyK
Description: Assays were performed in 40-µL volumes at 37 °C in black, 384-well plates. […] Following incubation, the reaction started with the addition of the fluorogenic substrate (5 µM), and product formation was monitored by measuring the fluorescence intensity every 20 s for 5 min (SIRT2) in a BioTek Synergy H1 microplate reader at λex = 320 nm and λem = 408 nm (gain = 130 and read height = 7 mm). Initial rates were determined using the plot of fluorescence vs. time for linear portions of each curve. IC50 values were then determined using GraphPad Prism to fit a nonlinear regression to the normalized rates vs. inhibitor concentration.

Row | Compound | IC50 (SIRT2 [1]) [nM] | activity at 0.5 µM (SIRT2 [1]; inhibitor 0.5 µM) [%] | activity at 1 µM (SIRT2 [1]; inhibitor 1 µM) [%] | activity at 2 µM (SIRT2 [1]; inhibitor 2 µM) [%] | activity at 4 µM (SIRT2 [1]; inhibitor 4 µM) [%] | activity at 50 µM (SIRT2 [1]; inhibitor 50 µM) [%] | activity at 0.0064 µM (SIRT2 [1]; inhibitor 0.0064 µM) [%] | %Activity, SIRT2 (SIRT2 [1]; inhibitor 0.0064 µM, 0.0064 µM) | activity at 0.032 µM (SIRT2 [1]; inhibitor 0.032 µM) [%] | %Activity, SIRT2 (SIRT2 [1]; inhibitor 0.032 µM, 0.032 µM) [%] | %Activity, SIRT2 (SIRT2 [1]; inhibitor 0.5 µM, 0.5 µM) | %Activity, SIRT2 (SIRT2 [1]; inhibitor 1 µM, 1 µM) | %Activity, SIRT2 (SIRT2 [1]; inhibitor 2 µM, 2 µM) [%] | %Activity, SIRT2 (SIRT2 [1]; inhibitor 4 µM, 4 µM) | %Activity, SIRT2 (SIRT2 [1]; inhibitor 50 µM, 50 µM) | other results
1 | CCCC(=S)NCCCC[C@H](NC(=O)[C@@H](NC(=O)[C@@H](NC(=O)[C@@H](N)CC)[C@@H](C)O)C(C)C)C(=O)N[C@H](C(N)=O)[C@@H](C)CC [S2P04(Abu)-5-tBuK] (H-[Abu]TV[X1]I-NH2) | 119 ± 3 | 10 | 6.61 | 4.66 | 3.95 | 1.5 | – | – | – | – | – | – | – | – | – | %Activity, SIRT2 (SIRT2 [1]; inhibitor 0.0064 µM, listed as S2P04-5-Abu-tBu, 0.0064 µM): 97.908% and 63.307%; %Activity, SIRT2 (SIRT2 [1]; inhibitor 0.032 µM, listed as S2P04-5-Abu-tBu, 0.032 µM): 79.071% and 55.539%; %Activity, SIRT2 (SIRT2 [1]; inhibitor 0.5 µM, listed as S2P04-5-Abu-tBu, 0.5 µM): 11.559%; %Activity, SIRT2 (SIRT2 [1]; inhibitor 1 µM, listed as S2P04-5-Abu-tBu, 1 µM): 4.9054%; %Activity, SIRT2 (SIRT2 [1]; inhibitor 2 µM, listed as S2P04-5-Abu-tBu, 2 µM): 4.1695%; %Activity, SIRT2 (SIRT2 [1]; inhibitor 4 µM, listed as S2P04-5-Abu-tBu, 4 µM): 3.2715%; %Activity, SIRT2 (SIRT2 [1]; inhibitor 50 µM, listed as S2P04-5-Abu-tBu, 50 µM): 1.1019%
2 | CCCCCCCCCCCCCC(=S)NCCCC[C@H](NC(=O)[C@@H](NC(=O)[C@@H](NC(=O)[C@@H](N)CC)[C@@H](C)O)C(C)C)C(=O)N[C@H](C(N)=O)[C@@H](C)CC [S2P04(Abu)-5-tMyK] (H-[Abu]TV[Lys(thiomyristoyl)]I-NH2) | – | – | – | – | – | – | – | – | – | – | – | – | – | – | – | IC50 (SIRT2 [2]; 10 nM SIRT2, 15 min preincubation, 5 µM substrate, n = 2): 18 ± 6 nM; activity at 0.000460773 µM (SIRT2 [2]; inhibitor 0.460773 nM): 83.3%; %Activity, SIRT2 (SIRT2 [2]; inhibitor 0.460773 nM, 0.000460773 µM): 75.1766%; activity at 0.000921546 µM (SIRT2 [2]; inhibitor 0.921546 nM): 84.4%; %Activity, SIRT2 (SIRT2 [2]; inhibitor 0.921546 nM, 0.000921546 µM): 83.3137%; activity at 0.00184309 µM (SIRT2 [2]; inhibitor 1.84309 nM): 92.7%; %Activity, SIRT2 (SIRT2 [2]; inhibitor 1.84309 nM, 0.00184309 µM): 107.334%; activity at 0.00368618 µM (SIRT2 [2]; inhibitor 3.68618 nM): 92.3%; %Activity, SIRT2 (SIRT2 [2]; inhibitor 3.68618 nM, 0.00368618 µM): 86.7202%; %Activity, SIRT2 (SIRT2 [2]; inhibitor 7.37237 nM, 0.00737237 µM): 106.229% and 65.8212%; activity at 0.0147447 µM (SIRT2 [2]; inhibitor 14.7447 nM): 70.6%; %Activity, SIRT2 (SIRT2 [2]; inhibitor 14.7447 nM, 0.0147447 µM): 50.6621%; activity at 0.058979 µM (SIRT2 [2]; inhibitor 58.979 nM): 27.7%; %Activity, SIRT2 (SIRT2 [2]; inhibitor 58.979 nM, 0.058979 µM): 13.9723%; activity at 0.117958 µM (SIRT2 [2]; inhibitor 117.958 nM): 20.7%; %Activity, SIRT2 (SIRT2 [2]; inhibitor 117.958 nM, 0.117958 µM): 15.5064%; %Activity, SIRT2 (SIRT2 [2]; inhibitor 235.916 nM, 0.235916 µM): 2.564% and 11.5055%; %Activity, SIRT2 (SIRT2 [2]; inhibitor 471.832 nM, 0.471832 µM): 2.292% and -2.292%; %Activity, SIRT2 (SIRT2 [2]; inhibitor 943.663 nM, 0.943663 µM): 6.074% and 14.5226%
3 | CCCC(=S)NCCCC[C@H](NC(=O)[C@@H](NC(=O)[C@@H](NC(=O)[C@H](CS)NC(C)=O)[C@@H](C)O)C(C)C)C(=O)N[C@H](C(N)=O)[C@@H](C)CC [Ac-S2P04-5-tBu] (Ac-CTV[X1]I-NH2) | 191 ± 9 | 12.5 | 5.39 | 3.09 | 3.78 | – | 104 | 111.5% | 89.7 | 105.63 | 12.664% | 6.0395% | 4.8945 | 3.4595% | -0.7428% and 1.396% | –
4 | CCCC(=S)NCCCC[C@H](NC(=O)[C@@H](NC(=O)[C@@H](NC(=O)[C@@H](N)CS)[C@@H](C)O)C(C)C)C(=O)N[C@H](C(N)=O)[C@@H](C)CC [S2P04-5-tBuK] (H-CTV[X1]I-NH2) | 136 ± 29 | 8.86 | 6.24 | 5 | – | 1.19 | 101 | 119.97% | 87.2 | 96.038 | 9.5933% | 6.7307% | 6.0395 | -0.2382% and 0.3719% | 0.8865% | –
5 | CCCC(=S)NCCCC[C@H](NC(=O)[C@@H](NC(=O)[C@@H](NC(=O)[C@@H](N)CS)[C@@H](C)O)C(C)C)C(=O)N[C@H](C(=O)N[C@@H](CO)C(=O)N[C@@H](CC(C)C)C(N)=O)[C@@H](C)O [S2P03-tBuK] (H-CTV[X1]TSL-NH2) | 68 ± 5 | – | – | 1.28 | – | – | 98.4 | 108.62% | 83.5 | 92.999 | 2.6542% and 5.9955% | 1.6503% and 4.1115% | 2.2764 | -0.1595% and 1.9208% | 2.8758% and -0.3176% | –
6 | CCCC(=S)NCCCC[C@H](NC(=O)[C@H](Cc1ccccc1)NC(=O)[C@@H](NC(=O)[C@@H](N)CS)[C@@H](C)O)C(=O)N[C@H](C(=O)N1CCC[C@H]1C(=O)N[C@H](C(N)=O)[C@@H](C)O)C(C)C [S2P07-tBuK] (H-CTF[X1]VPT-NH2) | 101 ± 13 | 9.45 | 6.71 | 4.93 | – | – | – | 98.946% and 68.389% | 87.5 | 67.907 | 9.1144% | 5.6905% | 4.4406 | 0.3859% and 2.3975% | 0.4825% and -0.01509% | –
